{
  "source": "patent EP0956028B1",
  "about": "“[…] INHIBITION OF […] GROWTH” (Purdue Research Foundation, priority 1996, dated 1998)",
  "test_system": "A549 human lung carcinoma cells",
  "assay": "Tumor cell proliferation (cell count), indirect co-culture with submucosal tissue membrane",
  "type": "cell-based",
  "protocol": "Carcinoma ceil lines including A549 (human lung adenocarcinoma), MCF-7 (human breast carcinoma) and human colorectal carcinoma cell lines were obtained from American Type Cell Culture (ATCC). Cell cultures were routinely performed at 37°C in an incubator supplemented with 5% CO2 and 95% air. Media used were F-12 pius 10° o FBS (fetal bovine serum) (Gibco BRL) for the A549 cells and RPMI plus 10% FBS (Gibco BRL) for both the MCF-7 and colonic carcinoma cell lines. The inhibition of tumor cell growth on several different forms of submucosal tissue including PA-ST (submucosal tissue sterilized in peracetic acid), Native submucosal tissue (no further treatment after dissection), Gamma irradiated submucosal tissue and solubilized submucosal tissue was assessed.\nCancer cells were cultured in the presence of various forms of intestinal submucosal tissue at 37°C in an incubator supplemented with 5% CO2 and 95% air using the following procedures: • 1. Direct Contact: Intestinal submucosal tissue and the cultured cells physically contact one another. • 2. Indirect Contact: Intestinal submucosal tissue and the cultured cells are separated by a stainless steel mesh. • 3. Solubilized intestinal submucosal tissue added to the culture media. • 4. Cells are cultured on solubilized intestinal submucosa coated culture plate. The coating was applied by placing 1 ml of solubilized intestinal submucosal tissue in a 35mm culture plate, heating at 37°C for 2 hours, removing the excess intestinal submucosal tissue fluid by aspiration and washing the coated plates once with culture media.\n• 1. […]\nTumor cells were plated at a cell density of approximately 5x10^5 cells/dish of 60 mm tissue culture dishes and grown until they reached about 50% confluence. Cell cultures were then subjected to the following treatments in triplicates: 1) control, cells grown in media only; 2) addition of different quantities of solubilized submucosal tissue (200-800 µl); 3) co-culture with submucosal tissue membranes of different sizes (indirect co-culture). […]",
  "data": [
    {"compound": "CC(=O)OO", "note": "[Peracidic Acid, peracetic acid]", "values": [
      {"measurement": "Cell Count (x10^5) (day 2 of treatment)", "setting": "100 µl of Peracidic Acid, A549", "result": "18.81 ± 2.59 x10^5"},
      {"measurement": "% of Control", "setting": "100 µl of Peracidic Acid, A549 cell count, day 2 of treatment", "result": 97, "unit": "%"},
      {"measurement": "inhibitory effect on cell proliferation", "setting": "added exogenously to tumor cells", "result": "no significant inhibitory effect"}
    ]}
  ]
}
